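Protocol summary: plate cells (96-well), add compound at 5 concentrations, incubate 48 h, interpolate endpoints linearly. Here, GI50 denotes the concentration required for 50% inhibition of growth.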 Active and inactive are the calls of the source. Rule as the data show it: active = GI50 up to about 1.1 µM and inactive = higher.
Key:
Assay in all cases: NCI anticancer screen, dose series, 48 h
[1] = system: HCC 2998
[2] = system: HCT-116
[3] = system: IGROV-1
[4] = system: KM12
[5] = system: M14
[6] = system: Malme-3M
[7] = system: NCI-H522
[8] = system: OVCAR-4
[9] = system: RXF 393
[10] = system: SF-268
[11] = system: SF-539
[12] = system: SK-MEL-28
[13] = system: UACC-257
[14] = system: UACC-62
[15] = system: UO-31
[16] = system: OVCAR-5

| Structure (SMILES) | GI50 [1] | GI50 [2] | GI50 [3] | GI50 [4] | GI50 [5] | GI50 [6] | GI50 [7] | GI50 [8] | GI50 [9] | GI50 [10] | GI50 [11] | GI50 [12] | GI50 [13] | GI50 [14] | GI50 [15] | GI50 [16] |
| --- | --- | --- | --- | --- | --- | --- | --- | --- | --- | --- | --- | --- | --- | --- | --- | --- |
| CC(C)(C)OC(=O)N[C@H]1CC(O)c2ccccc2N(CC(=O)O)C1=O (stereo partly drawn) | > 100 µM (inactive) | > 100 µM (inactive) | > 100 µM (inactive) | > 100 µM (inactive) | > 100 µM (inactive) | > 100 µM (inactive) | > 100 µM (inactive) | > 100 µM (inactive) | > 100 µM (inactive) | > 100 µM (inactive) | > 100 µM (inactive) | > 100 µM (inactive) | > 100 µM (inactive) | > 100 µM (inactive) | > 100 µM (inactive) |  |
| N=C(N)/N=C(/C=C/c1ccccc1)CC1OC(=O)c2ccccc21 (stereo not drawn) | > 100 µM (inactive) | > 100 µM (inactive) | > 100 µM (inactive) | > 100 µM (inactive) | > 100 µM (inactive) | > 100 µM (inactive) | > 100 µM (inactive) | > 100 µM (inactive) | > 100 µM (inactive) | 61.1 µM (inactive) | > 100 µM (inactive) |  | > 100 µM (inactive) | 42 µM (inactive) | > 100 µM (inactive) |  |
| CC12Oc3ccc4ccccc4c3CC1Cc1c(ccc3ccccc13)O2 (stereo not drawn) | > 100 µM (inactive) | > 100 µM (inactive) |  | > 100 µM (inactive) | 38.9 µM (inactive) | 3.44 µM (inactive) | 70 µM (inactive) | 26.5 µM (inactive) | 27.2 µM (inactive) | > 100 µM (inactive) | 60.4 µM (inactive) | > 100 µM (inactive) | 50.4 µM (inactive) |  | > 100 µM (inactive) | > 100 µM (inactive) |
| CCOC(=O)C1=C(C)N(C2OC(COC(C)=O)C(OC(C)=O)C(OC(C)=O)C2OC(C)=O)C(=O)NC1c1ccccc1 (stereo not drawn) | > 100 µM (inactive) | > 100 µM (inactive) | > 100 µM (inactive) | > 100 µM (inactive) | > 100 µM (inactive) | > 100 µM (inactive) | 20 µM (inactive) | > 100 µM (inactive) |  | > 100 µM (inactive) | > 100 µM (inactive) | > 100 µM (inactive) | > 100 µM (inactive) | > 100 µM (inactive) | > 100 µM (inactive) | > 100 µM (inactive) |
| COc1ccc2c(c1)[n+]([O-])c(C(=O)C/C(=N/OCCCc1ccccc1)C(=O)NC13CC4CC(CC(C4)C1)C3)c(C)[n+]2[O-] | > 100 µM (inactive) | > 100 µM (inactive) | > 100 µM (inactive) | > 100 µM (inactive) | > 100 µM (inactive) | > 100 µM (inactive) | > 100 µM (inactive) | > 100 µM (inactive) |  | > 100 µM (inactive) | > 100 µM (inactive) | > 100 µM (inactive) | > 100 µM (inactive) | > 100 µM (inactive) | > 100 µM (inactive) | > 100 µM (inactive) |
| COc1ccc(/C=N/N=C(\N)NO)c(OC)c1C | 7.08 µM (inactive) | 24.5 µM (inactive) | 56.4 µM (inactive) | 29.2 µM (inactive) |  | 16.3 µM (inactive) | 12.5 µM (inactive) | 22.9 µM (inactive) | 12.2 µM (inactive) | 15.4 µM (inactive) | 19.2 µM (inactive) | 5.57 µM (inactive) | 22.2 µM (inactive) | 16.3 µM (inactive) | 10.2 µM (inactive) | 2.47 µM (inactive) |
| C/C=C1\CCC2c3[nH]c4ccccc4c3CCN2C1 (stereo not drawn) |  | 56 µM (inactive) | > 100 µM (inactive) | > 100 µM (inactive) | 21.5 µM (inactive) | 0.174 µM (active) | 83.8 µM (inactive) | 32.1 µM (inactive) | 66.4 µM (inactive) | > 100 µM (inactive) | > 100 µM (inactive) | > 100 µM (inactive) |  | > 100 µM (inactive) | 38.6 µM (inactive) |  |
| CSc1nc2c(c(O)c(C)c(=O)n2C2OCC(OC(C)=O)C(OC(C)=O)C2OC(C)=O)c(=O)n1C (stereo not drawn) |  | > 100 µM (inactive) | > 100 µM (inactive) | > 100 µM (inactive) | > 100 µM (inactive) | > 100 µM (inactive) | > 100 µM (inactive) | > 100 µM (inactive) |  | > 100 µM (inactive) | > 100 µM (inactive) | > 100 µM (inactive) | > 100 µM (inactive) | > 100 µM (inactive) | > 100 µM (inactive) | > 100 µM (inactive) |
| Cc1ccc(Cc2c(=O)[nH]nc3ccccc23)cc1 | > 100 µM (inactive) | > 100 µM (inactive) | > 100 µM (inactive) | > 100 µM (inactive) | > 100 µM (inactive) | > 100 µM (inactive) |  | > 100 µM (inactive) |  | > 100 µM (inactive) | > 100 µM (inactive) | > 100 µM (inactive) | > 100 µM (inactive) | > 100 µM (inactive) | 58.3 µM (inactive) | > 100 µM (inactive) |
| Cc1cc2c(C)n(Cc3ccc(Cl)cc3Cl)nc2c(C(=O)O)c1C | > 100 µM (inactive) | > 100 µM (inactive) | > 100 µM (inactive) |  |  | > 100 µM (inactive) |  |  | > 100 µM (inactive) | > 100 µM (inactive) | > 100 µM (inactive) | > 100 µM (inactive) | > 100 µM (inactive) | 96.8 µM (inactive) | > 100 µM (inactive) | > 100 µM (inactive) |
| CCCCC(C(=O)C(=O)Nc1ccc(C)cc1C)C(=O)C(C)C (stereo not drawn) | > 100 µM (inactive) | > 100 µM (inactive) | > 100 µM (inactive) | > 100 µM (inactive) | > 100 µM (inactive) | > 100 µM (inactive) |  | > 100 µM (inactive) | > 100 µM (inactive) | > 100 µM (inactive) | > 100 µM (inactive) | > 100 µM (inactive) | > 100 µM (inactive) | > 100 µM (inactive) | > 100 µM (inactive) | > 100 µM (inactive) |
| O=C(O)C1CC2CC(=O)C1C2 (stereo not drawn) |  | > 100 µM (inactive) | > 100 µM (inactive) | > 100 µM (inactive) | > 100 µM (inactive) | > 100 µM (inactive) | > 100 µM (inactive) | > 100 µM (inactive) | > 100 µM (inactive) | > 100 µM (inactive) | > 100 µM (inactive) | > 100 µM (inactive) | > 100 µM (inactive) | > 100 µM (inactive) | > 100 µM (inactive) | > 100 µM (inactive) |
| S=C(N/N=C/c1ccccc1)NC1CC(c2ccccc2)Oc2ccccc21 (stereo not drawn) | > 100 µM (inactive) | 72.1 µM (inactive) | > 100 µM (inactive) | > 100 µM (inactive) | 15.3 µM (inactive) | 68.1 µM (inactive) | > 100 µM (inactive) | 16.9 µM (inactive) |  | 51.4 µM (inactive) | 38.3 µM (inactive) | 70 µM (inactive) |  | 48.8 µM (inactive) | > 100 µM (inactive) | > 100 µM (inactive) |
| CCC1CC(C)=CCN1S(=O)(=O)c1ccc(C)cc1 (stereo not drawn) |  | 9.82 µM (inactive) |  | 23.4 µM (inactive) | 22 µM (inactive) | 17.3 µM (inactive) | 16.6 µM (inactive) | 39 µM (inactive) |  | 15.9 µM (inactive) | 14.5 µM (inactive) |  | 25.9 µM (inactive) | 15.5 µM (inactive) | 11.3 µM (inactive) | 28 µM (inactive) |
| Cc1ccccc1C1SCc2nc3ccccc3n21 (stereo not drawn) | > 100 µM (inactive) | 4.72 µM (inactive) | > 100 µM (inactive) | > 100 µM (inactive) |  | 44.9 µM (inactive) | 21.8 µM (inactive) |  | > 100 µM (inactive) | > 100 µM (inactive) | 70.1 µM (inactive) | 23.6 µM (inactive) | 4.26 µM (inactive) | 7.28 µM (inactive) | > 100 µM (inactive) | 3.38 µM (inactive) |
| CN/C(=N\C#N)N(Cc1ccccc1)Cc1ccccc1 | > 100 µM (inactive) | > 100 µM (inactive) | > 100 µM (inactive) | > 100 µM (inactive) | > 100 µM (inactive) | > 100 µM (inactive) | > 100 µM (inactive) | > 100 µM (inactive) |  | > 100 µM (inactive) | > 100 µM (inactive) | > 100 µM (inactive) | > 100 µM (inactive) | > 100 µM (inactive) | > 100 µM (inactive) | > 100 µM (inactive) |
| O=C(Nc1ccc(Cl)cc1)C1C(=O)C(=O)N(c2ccc(Cl)cc2)C1=O (stereo not drawn) |  | 53.7 µM (inactive) | > 100 µM (inactive) | > 100 µM (inactive) | > 100 µM (inactive) | > 100 µM (inactive) | > 100 µM (inactive) |  | > 100 µM (inactive) | > 100 µM (inactive) | > 100 µM (inactive) | > 100 µM (inactive) |  | > 100 µM (inactive) | 79.6 µM (inactive) | > 100 µM (inactive) |
| COc1ccc(OC)c(/C=C/C(=O)C(C)(C)C)c1 | 23.2 µM (inactive) | 17.9 µM (inactive) | 18.2 µM (inactive) | 21.1 µM (inactive) | 15.7 µM (inactive) | 17.9 µM (inactive) | 13.8 µM (inactive) | 22.6 µM (inactive) | 18.5 µM (inactive) | > 10 µM (inactive) | 19.8 µM (inactive) | 17.2 µM (inactive) |  | 9.55 µM (inactive) |  | > 10 µM (inactive) |
| C/C(CN1C(=O)c2ccccc2C1=O)=N\NS(=O)(=O)c1ccccc1 | > 100 µM (inactive) | > 100 µM (inactive) | > 100 µM (inactive) | > 100 µM (inactive) | > 100 µM (inactive) | > 100 µM (inactive) | > 100 µM (inactive) | > 100 µM (inactive) |  | > 100 µM (inactive) | > 100 µM (inactive) | > 100 µM (inactive) | > 100 µM (inactive) | > 100 µM (inactive) | > 100 µM (inactive) | > 100 µM (inactive) |
